From ChEMBL document CHEMBL1201862, “PubChem BioAssay data set” (2004)
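These data come from cells grown in 96-well plates and exposed to compound for 48 hours at five concentrations. GI50 marks 50% less growth.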 Active and inactive are the calls of the source. Cut-off read from the data, not from the text of the source: active = GI50 up to about 1.1 µM and inactive = higher.

Key:
Test in all cases: NCI-60 cell line screen, 48 h
HL-60 = system: HL-60
SF-539 = system: SF-539
HOP-62 = system: HOP-62
DMS-273 = system: DMS-273
SN12C = system: SN12C
HOP-18 = system: HOP-18
M14 = system: M14
ACHN = system: ACHN
SW-620 = system: SW-620
HOP-92 = system: HOP-92
U-251 = system: U-251
SK-OV-3 = system: SK-OV-3
KM12 = system: KM12
NCI-H226 = system: NCI-H226
UACC-62 = system: UACC-62
HCT-116 = system: HCT-116
DMS-114 = system: DMS-114
LXFL 529 = system: LXFL 529
NCI-H522 = system: NCI-H522
SF-295 = system: SF-295
786-0 = system: 786-0
OVCAR-5 = system: OVCAR-5
CAKI-1 = system: CAKI-1
HT-29 = system: HT-29
XF498 = system: XF498
EKVX = system: EKVX
RPMI-8226 = system: RPMI-8226
COLO 205 = system: COLO 205
HCT-15 = system: HCT-15
NCI-H23 = system: NCI-H23
OVCAR-8 = system: OVCAR-8
SNB-19 = system: SNB-19
HCC 2998 = system: HCC 2998
NCI-H460 = system: NCI-H460
UACC-257 = system: UACC-257
CCRF-CEM = system: CCRF-CEM
KM-20L2 = system: KM-20L2
K562 = system: K562
OVCAR-4 = system: OVCAR-4
A498 = system: A498
OVCAR-3 = system: OVCAR-3
DLD-1 = system: DLD-1
MOLT-4 = system: MOLT-4
UO-31 = system: UO-31
A549 = system: A549
Malme-3M = system: Malme-3M
SNB-75 = system: SNB-75
SK-MEL-5 = system: SK-MEL-5
TK-10 = system: TK-10
SF-268 = system: SF-268
SK-MEL-28 = system: SK-MEL-28
M19-MEL = system: M19-MEL
IGROV-1 = system: IGROV-1

## NNC(=O)CNC(=O)c1ccc(Cl)cc1Cl
HL-60
  GI50: > 100 µM (inactive)
SF-539
  GI50: > 100 µM (inactive)
HOP-62
  GI50: > 100 µM (inactive)
DMS-273
  GI50: > 100 µM (inactive)
SN12C
  GI50: > 100 µM (inactive)
HOP-18
  GI50: > 100 µM (inactive)
M14
  GI50: > 100 µM (inactive)
ACHN
  GI50: > 100 µM (inactive)
SW-620
  GI50: 15.8 µM (inactive)
HOP-92
  GI50: > 100 µM (inactive)
U-251
  GI50: 39.6 µM (inactive)
SK-OV-3
  GI50: > 100 µM (inactive)
KM12
  GI50: > 100 µM (inactive)
NCI-H226
  GI50: > 100 µM (inactive)
UACC-62
  GI50: > 100 µM (inactive)
HCT-116
  GI50: 39.4 µM (inactive)
DMS-114
  GI50: > 100 µM (inactive)
LXFL 529
  GI50: > 100 µM (inactive)
NCI-H522
  GI50: > 100 µM (inactive)
SF-295
  GI50: > 100 µM (inactive)
786-0
  GI50: 39.8 µM (inactive)
OVCAR-5
  GI50: > 100 µM (inactive)
CAKI-1
  GI50: > 100 µM (inactive)
HT-29
  GI50: 80.4 µM (inactive)
XF498
  GI50: 91.6 µM (inactive)
EKVX
  GI50: > 100 µM (inactive)
RPMI-8226
  GI50: > 100 µM (inactive)
COLO 205
  GI50: > 100 µM (inactive)
HCT-15
  GI50: 32.7 µM
NCI-H23
  GI50: > 100 µM (inactive)
OVCAR-8
  GI50: > 100 µM (inactive)
SNB-19
  GI50: > 100 µM (inactive)
HCC 2998
  GI50: > 100 µM (inactive)
NCI-H460
  GI50: > 100 µM (inactive)
UACC-257
  GI50: > 100 µM (inactive)
CCRF-CEM
  GI50: > 100 µM (inactive)
KM-20L2
  GI50: > 100 µM (inactive)
K562
  GI50: > 100 µM (inactive)
OVCAR-4
  GI50: > 100 µM (inactive)
A498
  GI50: > 100 µM (inactive)
OVCAR-3
  GI50: > 100 µM (inactive)
DLD-1
  GI50: > 100 µM (inactive)
MOLT-4
  GI50: > 100 µM (inactive)
UO-31
  GI50: > 100 µM (inactive)
A549
  GI50: > 100 µM (inactive)
Malme-3M
  GI50: > 100 µM (inactive)
SNB-75
  GI50: > 100 µM (inactive)
SK-MEL-5
  GI50: > 100 µM (inactive)
TK-10
  GI50: > 100 µM (inactive)
SF-268
  GI50: > 100 µM (inactive)
SK-MEL-28
  GI50: > 100 µM (inactive)
M19-MEL
  GI50: > 100 µM (inactive)
IGROV-1
  GI50: > 100 µM (inactive)
